IC90 data for 10 compounds are collected here from US20230017532A1 (Hoffmann-La Roche Inc., priority 2018, published 2023).

Structures can show the parent of a compound that is named as a salt.

The first assay deals with Acinetobacter baumannii ATCC17978. Nature of the assay: Antimicrobial susceptibility testing: 90% growth inhibitory concentration (IC90) determination, Iso-Sensitest broth, OD 600 nm. In kind it is cell-based. To be noted: 90% growth inhibitory concentration, Acinetobacter baumannii ATCC17978, Iso-Sensitest broth, OD 600 nm over 16 h; read-out: ATCC 17978 IC90. Put shortly: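 Twofold serial dilutions (e.g. 50–0.097 μM final) incubated with ~5×10^5 CFU/ml in Iso-Sensitest broth at 35±2 °C. OD600 read every 20 min for 16 h; IC90 derived from growth inhibition during logarithmic phase.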
One may read the IC90 as the concentration at which the effect reaches the 90% level. `CCc1cc(Nc2nccn3c(-c4ccc(OC)c(F)c4F)cnc23)ccc1C(=O)NCCNCCN` [Example 186, N-[2-(2-aminoethyl-amino)ethyl]-4-[[3-(2,3-difluoro-4-methoxyphenyl)imidazo[1,2-a]pyrazin-8-yl]amino]-2-ethyl-benzamide;2,2,2-trifluoroacetic acid]: the IC90 was found to be 660 nM.

Still in this assay, the particulars now being: Acinetobacter baumannii, ATCC17978, 16 h, 90% growth inhibitory concentration, Acinetobacter baumannii ATCC17978, Iso-Sensitest broth, OD 600 nm over 16 h; read-out: ATCC 17978 IC90.
Consider `CCc1cc(Nc2nccn3c(-c4ccc(OC)c(F)c4F)cnc23)ccc1C(=O)NCCCNCC[C@H](N)C(=O)O` [Example 183, (2S)-2-amino-4-[3-[[4-[[3-(2,3-difluoro-4-methoxyphenyl)imidazo[1,2-a]pyrazin-8-yl]amino]-2-ethyl-benzoyl]amino]propylamino] butanoic acid; formic acid], for which the 90% effect concentration (IC90) was determined as 660 nM.

On to `CCc1cc(Nc2nccn3c(-c4ccc(OC)c(F)c4F)cnc23)ccc1C(=O)NCCCNCCCN` [Example 184, N-[3-(3-aminopropyl-amino)propyl]-4-[[3-(2,3-difluoro-4-methoxyphenyl)imidazo[1,2-a]pyrazin-8-yl]amino]-2-ethyl-benzamide;2,2,2-trifluoroacetic acid], for which the IC90 worked out at 590 nM.

`CCc1cc(Nc2nccn3c(-c4ccc(OC)c(F)c4F)cnc23)ccc1C(=O)NCCCNCCN` [Example 185, N-[3-(2-aminoethyl-amino)propyl]-4-[[3-(2,3-difluoro-4-methoxyphenyl)imidazo[1,2-a]pyrazin-8-yl]amino]-2-ethylbenzamide; 2,2,2-trifluoro-acetic acid]: the IC90 stood at 590 nM.

As to `COc1ccc(-c2cnc3c(Nc4ccc(C(=O)NCCCNCC[C@H](N)C(=O)O)c(C)c4)nccn23)c(F)c1F` [Example 187, (2S)-2-amino-4-[3-[[4-[[3-(2,3-difluoro-4-methoxyphenyl)imidazo[1,2-a]pyrazin-8-yl]amino]-2-methyl-benzoyl]amino]propylamino] butanoic acid], the IC90 stood at 1100 nM.

In the case of `CCc1cc(Nc2nccn3c(-c4ccc(OC)c(F)c4F)cnc23)ccc1C(=O)NCCNCCCN` [Example 188, N-[2-(3-amino-propylamino)ethyl]-4-[[3-(2,3-difluoro-4-methoxyphenyl)imidazo[1,2-a]pyrazin-8-y]amino]-2-ethylbenzamide; formic acid], the 90% effect concentration (IC90) was found to be 1200 nM.

Regarding `COc1ccc(-c2cnc3c(Nc4ccc(C(=O)NCCNCCC[C@H](N)C(=O)O)c(C)c4)nccn23)c(F)c1F` [Example 189, (2S)-2-amino-5-[2-[[4-[[3-(2,3-difluoro-4-methoxyphenyl)imidazo[1,2-a]pyrazin-8-yl]amino]-2-methyl-benzoyl]amino]ethylamino] pentanoic acid], the 90% effect concentration (IC90) was found to be 2400 nM.

For the compound `CCc1cc(Nc2nccn3c(-c4ccc(Cl)c(F)c4F)cnc23)ccc1C(=O)NCCCNC` [Example 192, 4-[[3-(4-chloro-2,3-difluorophenyl)imidazo[1,2-a]pyrazin-8-yl]amino]-2-ethyl-N-[3-(methyl-amino)propyl] benzamide; hydrochloride], the concentration for an effect of 90% (IC90) amounted to 1600 nM.

As for `CCc1cc(Nc2nccn3c(-c4ccc(OC(F)F)c(F)c4F)cnc23)ccc1C(=O)NCCCNCCO` [Example 193, 4-((3-(4-(difluoro-methoxy)-2,3-difluorophenyl)imidazo[1,2-a]pyrazin-8-yl)amino)-2-ethyl-N-(3-((2-hydroxyethyl)amino)propyl) benzamide], the IC90 came to 280 nM.

The same assay, now with this note: Acinetobacter baumannii, ATCC17978, 16 h, read-out: ATCC 17978 IC90.
In the case of `CCc1cc(Nc2nccn3c(-c4ccc(OC(F)F)c(F)c4F)cnc23)ccc1C(=O)NCCOCCO[C@H]1O[C@H](CO)[C@H](O)[C@H](O)[C@H]1O` [Example 194, 4-((3-(4-(difluoro-methoxy)-2,3-difluorophenyl)imidazo[1,2-a]pyrazin-8-yl)amino)-2-ethyl-N-(2-(2-(((2S,3R, 4S,5R,6R)-3,4,5-trihydroxy-6-(hydroxymethyl)tetrahydro-2H-pyran-2-yl)oxy)ethoxy)ethyl) benzamide formate], the IC90 amounted to 350 nM.
